Reference: patent publication US11013726B2 (Arbutus Biopharma Corporation, priority 2016, dated 2021)

system: HBsAg; assay: HBsAg assay; assay type: cell-based, hepatitis B virus; settings: Hepatitis B virus, HepG2.2.15, 144 h, read-out: sAg EC50, μM, HepG2.2.15 cells, day 6
Description: Inhibition of HBsAg was determined in HepG2.2.15 cells. Cells were maintained in culture medium containing 10% fetal calf serum, […], Glutamine, penicillin/streptomycin. Cells were seeded in 96-well collagen-coated plate at a density of 30,000 cells/well. Serially diluted compounds were added to cells next day at the final DMSO concentration of 0.5%. Cells were incubated with compounds for 2-3 days, after which medium was removed. Fresh medium containing compounds was added to cells for additional 3-4 days. At day 6 after exposure of compounds, supernatant was collected, the HBsAg immunoassay (microplate-based chemiluminescence immunoassay kits, CLIA, Autobio Diagnosics Co., Zhengzhou, China, Catalog # CL0310-2) was used to determine the level of HBsAg according to manufactory instruction. Dose-response curves were generated and the EC50 value (effective concentrations that achieved 50% inhibitory effect) were determined using XLfit software. In addition, cells were seeded at a density of 5,000 cells/well for determination of cell viability in the presence and absence of compounds by using CellTiter-Glo reagent (Promega). Tables 1-3 show EC50 values obtained by the HBsAg assay for selected compounds.

Question: Which EC50 does the source give for `COCCCOc1cc2c(cc1C1CC1)-c1cc(=O)c(C(=O)O)cn1[C@H](C(C)C)CO2` [Example 45, (R)-2-Cyclopropyl-7-isopropyl-3-(3-methoxypropoxy)-11-oxo-6,7-dihydro-11H-benzo[f]pyrido[1,2-d][1,4]oxazepine-10-carboxylic acid] here?
Answer: 0.006 µM

Question: Which EC50 does the source give for `COCCCOc1cc2c(cc1Cl)-c1cc(=O)c(C(=O)O)cn1[C@H](CCO)CO2` [Example 43, (R)-2-Chloro-7-(2-hydroxyethyl)-3-(3-methoxypropoxy)-11-oxo-6,7-dihydro-11H-benzo[f]pyrido[1,2-d][1,4]oxazepine-10-carboxylic acid] here?
Answer: 0.35 µM

Question: `COCCCOc1cc2c(nc1Cl)-c1cc(=O)c(C(=O)O)cn1C1(CCCC1)CO2` [Example 70, 2′-Chloro-3′-(3-methoxypropoxy)-11′-oxo-6′H,11′H-spiro[cyclopentane-1,7′-dipyrido[1,2-d:2′,3′-f][1,4]oxazepine]-10′-carboxylic acid] was tested. Which EC50 did it give?
Answer: 0.041 µM

Question: How did the EC50 turn out when `COCCCOc1cc2c(cc1Cl)-c1cc(=O)c(NC(=O)OCC(C)(C)C)cn1C(C(C)(C)C)C2` (centres unmarked) [Example 124, Neopentyl (6-(tert-butyl)-10-chloro-9-(3-methoxypropoxy)-2-oxo-6,7-dihydro-2H-pyrido[2,1-a]isoquinolin-3-yl)carbamate] was run?
Answer: 16 µM

Question: How did the EC50 turn out when `COCCCOc1cc2c(nc1OC)-c1cc(=NN)c(C(=O)NN)cn1[C@H](C(C)C)C2` [Example 152, (6S,10)-10-Hydrazinylidene-6-isopropyl-2-methoxy-3-(3-methoxypropoxy)-5H,6H-pyrido[1,2-h]1,7-naphthyridine-9-carbohydrazide] was run?
Answer: 0.03 µM

Question: Which EC50 does the source give for `CCOC(=O)c1cn2c(cc1=O)-c1cc(Cl)c(O)cc1OCC2C(C)C` (centres unmarked) [Example 32, Ethyl 2-chloro-3-hydroxy-7-isopropyl-11-oxo-6,7-dihydro-11H-benzo[f]pyrido[1,2-d][1,4]oxazepine-10-carboxylate] here?
Answer: 22 µM

Question: With `COc1cc2c(cc1F)-c1cc(=O)c(C(=O)O)cn1C(C(C)C)CO2` (centres unmarked) [Example 15, 2-Fluoro-7-isopropyl-3-methoxy-11-oxo-6,7-dihydro-11H-benzo[f]pyrido[1,2-d][1,4]oxazepine-10-carboxylic acid] as the molecule, how does the EC50 read?
Answer: 0.9 µM

Question: How did the EC50 turn out when `COCCCOc1cc2c(nc1OC)-c1cc(=O)c(C(C)=O)cn1C(C(C)C)C2` (centres unmarked) [Example 142, 9-Acetyl-6-isopropyl-2-methoxy-3-(3-methoxypropoxy)-5,6-dihydro-10H-pyrido[1,2-h][1,7]naphthyridin-10-one] was run?
Answer: 0.62 µM

Question: Which EC50 does the source give for `COCCCOc1cc2c(cc1Cl)-c1cc(=O)ccn1[C@H](C(C)C)CO2` [Example 136, (R)-2-Chloro-7-isopropyl-3-(3-methoxypropoxy)-6,7-dihydro-11H-benzo[f]pyrido[1,2-d][1,4]oxazepin-11-one] here?
Answer: 0.57 µM

Question: `COc1ccc2c(c1)OCC(C(C)C)n1cc(C(=O)O)c(=O)cc1-2` (centres unmarked) [Example 16, 7-Isopropyl-3-methoxy-11-oxo-6,7-dihydro-11H-benzo[f]pyrido[1,2-d][1,4]oxazepine-10-carboxylic acid] was tested. Which EC50 did it give?
Answer: 3.5 µM

Question: With `COc1cc2c(cc1Cl)-c1cc(=O)c(C(=O)O)cn1C(COC(C)C)CO2` (centres unmarked) [Example 11, 2-Chloro-7-(isopropoxymethyl)-3-methoxy-11-oxo-6,7-dihydro-11H-benzo[f]pyrido[1,2-d][1,4]oxazepine-10-carboxylic acid] as the molecule, how does the EC50 read?
Answer: 12 µM

Question: For `Cc1c2n(cc(C(=O)O)c1=O)C(C(C)(C)C)Cc1cc3c(cc1-2)OCCCO3` (centres unmarked) [Example 100, 6-(Tert-butyl)-1-methyl-2-oxo-6,7,11,12-tetrahydro-2H,10H-[1,4]dioxepino[2,3-g]pyrido[2,1-a]isoquinoline-3-carboxylic acid], which EC50 is on record?
Answer: 10 µM

Question: How did the EC50 turn out when `CC(C)[C@@H]1COc2cc(OCC(F)(F)F)c(C3CC3)cc2-c2cc(=O)c(C(=O)O)cn21` [Example 54, (R)-2-Cyclopropyl-7-isopropyl-11-oxo-3-(2,2,2-trifluoroethoxy)-6,7-dihydro-11H-benzo[f]pyrido[1,2-d][1,4]oxazepine-10-carboxylic acid] was run?
Answer: 0.012 µM

Question: With `COc1cc2c(cc1Cl)-c1cc(=O)c(C(=O)O)cn1[C@@H](CC(C)C)CO2` (single isomer, unassigned) [Example 6] as the molecule, how does the EC50 read?
Answer: 3.8 µM

Question: `COc1cc2c(cc1Cl)-c1cc(=O)c(C(=O)O)cn1CC(C(C)(C)C)O2` (centres unmarked) [Example 12, 6-(Tert-butyl)-2-chloro-3-methoxy-11-oxo-6,7-dihydro-11H-benzo[f]pyrido[1,2-d][1,4]oxazepine-10-carboxylic acid] was tested. Which EC50 did it give?
Answer: 47 µM

Question: Which EC50 does the source give for `COc1cc2c(nc1OC)-c1cc(=O)c(C(=O)O)cn1C(C(C)C)C2` (centres unmarked) [Example 23, 6-Isopropyl-2,3-dimethoxy-10-oxo-5,10-dihydro-6H-pyrido[1,2-h][1,7]naphthyridine-9-carboxylic acid] here?
Answer: 0.019 µM

Question: For `COc1cc2c(cc1Cl)-c1cc(=O)c(C(=O)O)cn1C1CCCC1O2` (centres unmarked) [Example 14, 12-Chloro-11-methoxy-2-oxo-5a,7,8,8a-tetrahydro-2H,6H-benzo[f]cyclopenta[b]pyrido[1,2-d][1,4]oxazepine-3-carboxylic acid], which EC50 is on record?
Answer: 0.56 µM

Question: Which EC50 does the source give for `Cc1cc2c(cc1OCC(C)C)OC[C@@H](C(C)C)n1cc(C(=O)O)c(=O)cc1-2` [Example 51, (R)-3-Isobutoxy-7-isopropyl-2-methyl-11-oxo-6,7-dihydro-11H-benzo[f]pyrido[1,2-d][1,4]oxazepine-10-carboxylic acid] here?
Answer: 0.015 µM

Question: With `COc1ccc2c(n1)-c1cc(=O)c(C(=O)O)cn1[C@@H]2C(C)C` [Example 172, (R)-5-Isopropyl-2-methoxy-9-oxo-5,9-dihydropyrido[2,3-a]indolizine-8-carboxylic acid] as the molecule, how does the EC50 read?
Answer: 0.82 µM

Question: With `COCCCOc1cc2c(nc1OC)-c1cc(=O)c(C(C)(C)O)cn1C(C(C)C)C2` (centres unmarked) [Example 143, 9-(2-Hydroxypropan-2-yl)-6-isopropyl-2-methoxy-3-(3-methoxypropoxy)-5,6-dihydro-10H-pyrido[1,2-h][1,7]naphthyridin-10-one] as the molecule, how does the EC50 read?
Answer: 0.91 µM

Question: For `COCCOC1COc2cc3c(cc2OC1)-c1cc(=O)c(C(=O)O)cn1C(C(C)(C)C)C3` (centres unmarked) [Example 97, 6-(Tert-butyl)-11-(2-methoxyethoxy)-2-oxo-6,7,11,12-tetrahydro-2H,10H-[1,4]dioxepino[2,3-g]pyrido[2,1-a]isoquinoline-3-carboxylic acid], which EC50 is on record?
Answer: 1.4 µM

Question: For `CC(C)COc1cc2c(nc1Cl)-c1cc(=O)c(C(=O)O)cn1[C@H](C(C)C)CO2` [Example 79, (R)-2-Chloro-3-isobutoxy-7-isopropyl-11-oxo-6,7-dihydro-11H-dipyrido[1,2-d:2′,3′-f][1,4]oxazepine-10-carboxylic acid], which EC50 is on record?
Answer: 0.79 µM

Question: For `COCCCOc1cc2c(cc1Cl)-c1cc(=O)c(N(c3ncccn3)c3ncccn3)cn1C(C(C)(C)C)C2` (centres unmarked) [Example 130, 6-(Tert-butyl)-10-chloro-3-(di(pyrimidin-2-yl)amino)-9-(3-methoxypropoxy)-6,7-dihydro-2H-pyrido[2,1-a]isoquinolin-2-one], which EC50 is on record?
Answer: 0.91 µM

Question: How did the EC50 turn out when `COCCCNc1cc2c(cc1Cl)-c1cc(=O)c(C(=O)O)cn1[C@H](C(C)C)CO2` [Example 61, (R)-2-Chloro-7-isopropyl-3-((3-methoxypropyl)amino)-11-oxo-6,7-dihydro-11H-benzo[f]pyrido[1,2-d][1,4]oxazepine-10-carboxylic acid] was run?
Answer: 0.023 µM

Question: For `COCCCOc1cc2c(nc1OC)-c1cc(=O)c(C(=O)O)cn1C1(CCC1)C2` [Example 171, 2′-Methoxy-3′-(3-methoxypropoxy)-10′-oxo-5′,10′-dihydrospiro[cyclobutane-1,6′-pyrido[1,2-h][1,7]naphthyridine]-9′-carboxylic acid], which EC50 is on record?
Answer: 0.018 µM

Question: `CC(C)C1Cc2sc(Cl)cc2-c2cc(=O)c(C(=O)O)cn21` (centres unmarked) [Example 85, 2-Chloro-5-isopropyl-9-oxo-4,9-dihydro-5H-thieno[3,2-a]quinolizine-8-carboxylic acid] was tested. Which EC50 did it give?
Answer: 16 µM

Question: With `C=C1COc2cc3c(cc2OC1)-c1cc(=O)c(C(=O)O)cn1C(C(C)(C)C)C3` (centres unmarked) [Example 98, 6-(Tert-butyl)-11-methylene-2-oxo-6,7,11,12-tetrahydro-2H,10H-[1,4]dioxepino[2,3-g]pyrido[2,1-a]isoquinoline-3-carboxylic acid] as the molecule, how does the EC50 read?
Answer: 0.1 µM

Question: How did the EC50 turn out when `CCOCCOc1cc2c(cc1C)-c1cc(=O)c(C(=O)O)cn1[C@H](C(C)C)CO2` [Example 55, (R)-3-(2-Ethoxyethoxy)-7-isopropyl-2-methyl-11-oxo-6,7-dihydro-11H-benzo[f]pyrido[1,2-d][1,4]oxazepine-10-carboxylic acid] was run?
Answer: 0.13 µM

Question: With `COCCCOc1cc2c(cc1Cl)-c1cc(=O)c(-c3ccccn3)cn1[C@H](C(C)C)CO2` [Example 138, (R)-2-Chloro-7-isopropyl-3-(3-methoxypropoxy)-10-(pyridin-2-yl)-6,7-dihydro-11H-benzo[f]pyrido[1,2-d][1,4]oxazepin-11-one] as the molecule, how does the EC50 read?
Answer: 12 µM

Question: `COCCOc1cc2c(cc1Cl)-c1cc(=O)c(C(=O)O)cn1[C@H](C(C)C)CO2` (single isomer, unassigned) [Example 30] was tested. Which EC50 did it give?
Answer: 0.053 µM

Question: `COCCCOc1cc2c(nc1Cl)-c1cc(=O)c(C(=O)O)cn1C1(CCCCC1)CO2` [Example 69, 2′-Chloro-3′-(3-methoxypropoxy)-1′-oxo-6′H,11′H-spiro[cyclohexane-1,7′-dipyrido[1,2-d:2′,3′-f][1,4]oxazepine]-10′-carboxylic acid] was tested. Which EC50 did it give?
Answer: 0.021 µM

same assay, conditions: read-out: sAg EC50; HepG2.2.15 cells, day 6

Question: How did the EC50 turn out when `COc1cc2c(nc1OC)-c1cc(=O)c(C(=O)O)cn1C(C(C)C)C2` (single isomer, unassigned) [Example 24, 6-Isopropyl-2,3-dimethoxy-10-oxo-5,10-dihydro-6H-pyrido[1,2-h][1,7]naphthyridine-9-carboxylic acid] was run?
Answer: 0.25 µM
